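96-well plates; 48 h exposure; 5 concentrations. Endpoints by linear interpolation between flanking doses. Not reached: highest tested concentration assigned. Here, GI50 denotes the concentration required for 50% inhibition of growth. Definition used: TGI = concentration required for complete inhibition of growth.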
Key:
Assay in all cases: growth of human tumour cells (NCI), 48 h
786-0 renal = test system: 786-0 renal
A498 renal = test system: A498 renal
A549 NSCLC = test system: A549 NSCLC
ACHN renal = test system: ACHN renal
BT-549 breast = test system: BT-549 breast
CAKI-1 renal = test system: CAKI-1 renal
CCRF-CEM leukemia = test system: CCRF-CEM leukemia
COLO 205 colon = test system: COLO 205 colon
DU-145 prostate = test system: DU-145 prostate
EKVX NSCLC = test system: EKVX NSCLC
HCC-2998 colon = test system: HCC-2998 colon
HCT-116 colon = test system: HCT-116 colon
HCT-15 colon = test system: HCT-15 colon
HL-60(TB) leukemia = test system: HL-60(TB) leukemia
HOP-62 NSCLC = test system: HOP-62 NSCLC
HOP-92 NSCLC = test system: HOP-92 NSCLC
HS 578T breast = test system: HS 578T breast
HT29 colon = test system: HT29 colon
IGROV1 ovarian = test system: IGROV1 ovarian
K-562 leukemia = test system: K-562 leukemia
KM12 colon = test system: KM12 colon
LOX IMVI melanoma = test system: LOX IMVI melanoma
M14 melanoma = test system: M14 melanoma
MALME-3M melanoma = test system: MALME-3M melanoma
MCF7 breast = test system: MCF7 breast
MDA-MB-231 breast = test system: MDA-MB-231 breast
MDA-MB-435 = test system: MDA-MB-435
MOLT-4 leukemia = test system: MOLT-4 leukemia
NCI-H226 lung = test system: NCI-H226 lung
NCI-H23 lung = test system: NCI-H23 lung
NCI-H460 lung = test system: NCI-H460 lung
NCI-H522 lung = test system: NCI-H522 lung
NCI/ADR-RES ovarian = test system: NCI/ADR-RES ovarian
OVCAR-3 ovarian = test system: OVCAR-3 ovarian
OVCAR-4 ovarian = test system: OVCAR-4 ovarian
OVCAR-5 ovarian = test system: OVCAR-5 ovarian
OVCAR-8 ovarian = test system: OVCAR-8 ovarian
PC-3 prostate = test system: PC-3 prostate
RPMI-8226 leukemia = test system: RPMI-8226 leukemia
RXF 393 renal = test system: RXF 393 renal
SF-268 CNS = test system: SF-268 CNS
SF-295 CNS = test system: SF-295 CNS
SF-539 CNS = test system: SF-539 CNS
SK-MEL-2 melanoma = test system: SK-MEL-2 melanoma
SK-MEL-28 melanoma = test system: SK-MEL-28 melanoma
SK-MEL-5 melanoma = test system: SK-MEL-5 melanoma
SK-OV-3 ovarian = test system: SK-OV-3 ovarian
SN12C renal = test system: SN12C renal
SNB-19 CNS = test system: SNB-19 CNS
SNB-75 CNS = test system: SNB-75 CNS
SR leukemia = test system: SR leukemia
SW-620 colon = test system: SW-620 colon
T-47D breast = test system: T-47D breast
TK-10 renal = test system: TK-10 renal
U251 CNS = test system: U251 CNS
UACC-257 melanoma = test system: UACC-257 melanoma
UACC-62 melanoma = test system: UACC-62 melanoma
UO-31 renal = test system: UO-31 renal

## CNC(=O)NCC1OC(n2cnc3c(NC(=O)Nc4ccccc4)ncnc32)C(O[Si](C)(C)C(C)(C)C)C1CC(=O)N(C)OC (stereo not drawn)
786-0 renal
  GI50: 7.06 µM
  TGI: > 100 µM
A498 renal
  GI50: 6.06 µM
  TGI: > 63.5 µM
A549 NSCLC
  GI50: 5.88 µM
  TGI: > 100 µM
ACHN renal
  GI50: 7.87 µM
  TGI: > 100 µM
BT-549 breast
  GI50: 9.58 µM
  TGI: > 100 µM
CAKI-1 renal
  GI50: 53.8 µM
  TGI: > 100 µM
CCRF-CEM leukemia
  GI50: 6.37 µM
  TGI: > 100 µM
COLO 205 colon
  GI50: 12.3 µM
  TGI: > 100 µM
DU-145 prostate
  GI50: 14.7 µM
  TGI: > 100 µM
EKVX NSCLC
  GI50: 12.3 µM
  TGI: > 100 µM
HCC-2998 colon
  GI50: 30.6 µM
  TGI: > 100 µM
HCT-116 colon
  GI50: 3.95 µM
  TGI: > 100 µM
HCT-15 colon
  GI50: 4.8 µM
  TGI: > 100 µM
HL-60(TB) leukemia
  GI50: 1.69 µM
  TGI: 4.23 µM
HOP-62 NSCLC
  GI50: 22 µM
  TGI: > 100 µM
HOP-92 NSCLC
  GI50: 4.33 µM
  TGI: > 49.3 µM
HS 578T breast
  GI50: 7.39 µM
  TGI: > 100 µM
HT29 colon
  GI50: 4.12 µM
  TGI: > 100 µM
IGROV1 ovarian
  GI50: 4 µM
  TGI: > 81.1 µM
K-562 leukemia
  GI50: 3.12 µM
  TGI: > 100 µM
KM12 colon
  GI50: 10.6 µM
  TGI: > 100 µM
LOX IMVI melanoma
  GI50: 5.12 µM
  TGI: > 100 µM
M14 melanoma
  GI50: 8.36 µM
  TGI: > 100 µM
MALME-3M melanoma
  GI50: 7.51 µM
  TGI: > 100 µM
MCF7 breast
  GI50: 4.11 µM
  TGI: > 100 µM
MDA-MB-231 breast
  GI50: 8.47 µM
  TGI: > 100 µM
MDA-MB-435
  GI50: 5.66 µM
  TGI: > 100 µM
MOLT-4 leukemia
  GI50: 2.23 µM
  TGI: 9.36 µM
NCI-H226 lung
  GI50: 15.8 µM
  TGI: > 100 µM
NCI-H23 lung
  GI50: 23.6 µM
  TGI: > 100 µM
NCI-H460 lung
  GI50: 5.32 µM
  TGI: > 100 µM
NCI-H522 lung
  GI50: 7.76 µM
  TGI: > 100 µM
NCI/ADR-RES ovarian
  GI50: > 100 µM
  TGI: > 100 µM
OVCAR-3 ovarian
  GI50: 5.84 µM
  TGI: > 100 µM
OVCAR-4 ovarian
  GI50: 16.6 µM
  TGI: > 100 µM
OVCAR-5 ovarian
  GI50: 16.8 µM
  TGI: > 100 µM
OVCAR-8 ovarian
  GI50: 6.52 µM
  TGI: > 100 µM
PC-3 prostate
  GI50: 4.95 µM
  TGI: > 100 µM
RPMI-8226 leukemia
  GI50: 1.58 µM
  TGI: 5.4 µM
RXF 393 renal
  GI50: 4.02 µM
  TGI: 12.7 µM
SF-268 CNS
  GI50: 8.29 µM
  TGI: > 100 µM
SF-295 CNS
  GI50: 9.09 µM
  TGI: > 100 µM
SF-539 CNS
  GI50: 8.21 µM
  TGI: > 100 µM
SK-MEL-2 melanoma
  GI50: 8.08 µM
  TGI: > 91.2 µM
SK-MEL-28 melanoma
  GI50: 5.21 µM
  TGI: > 100 µM
SK-MEL-5 melanoma
  GI50: 4.92 µM
  TGI: > 100 µM
SK-OV-3 ovarian
  GI50: > 72.6 µM
  TGI: > 100 µM
SN12C renal
  GI50: 17.1 µM
  TGI: > 100 µM
SNB-19 CNS
  GI50: > 23 µM
  TGI: > 100 µM
SNB-75 CNS
  GI50: 6.32 µM
  TGI: > 100 µM
SR leukemia
  GI50: 1.63 µM
  TGI: 4.06 µM
SW-620 colon
  GI50: > 100 µM
  TGI: > 100 µM
T-47D breast
  GI50: 7.41 µM
  TGI: > 100 µM
TK-10 renal
  GI50: 9.17 µM
  TGI: > 100 µM
U251 CNS
  GI50: 4.85 µM
  TGI: > 100 µM
UACC-257 melanoma
  GI50: 8.25 µM
  TGI: > 100 µM
UACC-62 melanoma
  GI50: 41.9 µM
  TGI: > 100 µM
UO-31 renal
  GI50: 5.7 µM
  TGI: > 100 µM

## COc1ccc(/C=C/C(=O)c2cc3c(N)c(C(=O)Nc4cccc(Cl)c4C)sc3nc2C)cc1
786-0 renal
  GI50: 0.411 µM
  TGI: > 13.6 µM
A498 renal
  GI50: 0.174 µM
  TGI: 0.781 µM
A549 NSCLC
  GI50: 0.261 µM
  TGI: > 50 µM
ACHN renal
  GI50: 0.33 µM
  TGI: > 50 µM
BT-549 breast
  GI50: 0.606 µM
  TGI: 4.25 µM
CAKI-1 renal
  GI50: 0.284 µM
  TGI: > 26.7 µM
CCRF-CEM leukemia
  GI50: 0.205 µM
  TGI: > 35.3 µM
COLO 205 colon
  GI50: 0.169 µM
  TGI: 0.751 µM
DU-145 prostate
  GI50: 0.218 µM
  TGI: > 50 µM
EKVX NSCLC
  GI50: 0.384 µM
  TGI: > 50 µM
HCC-2998 colon
  GI50: 0.35 µM
  TGI: 2.92 µM
HCT-116 colon
  GI50: 0.188 µM
HCT-15 colon
  GI50: 0.185 µM
  TGI: > 50 µM
HL-60(TB) leukemia
  GI50: 0.14 µM
  TGI: 0.46 µM
HOP-62 NSCLC
  GI50: 0.288 µM
  TGI: > 50 µM
HOP-92 NSCLC
  GI50: 0.876 µM
  TGI: 10.6 µM
HS 578T breast
  GI50: 0.173 µM
  TGI: > 50 µM
HT29 colon
  GI50: 0.17 µM
  TGI: > 50 µM
IGROV1 ovarian
  GI50: 0.251 µM
  TGI: > 50 µM
K-562 leukemia
  GI50: 0.181 µM
  TGI: > 50 µM
KM12 colon
  GI50: 0.214 µM
  TGI: 6.82 µM
LOX IMVI melanoma
  GI50: 0.243 µM
  TGI: 1.25 µM
M14 melanoma
  GI50: 0.146 µM
  TGI: > 50 µM
MALME-3M melanoma
  GI50: 1.25 µM
  TGI: > 50 µM
MCF7 breast
  GI50: 0.196 µM
  TGI: > 50 µM
MDA-MB-231 breast
  GI50: 0.327 µM
  TGI: > 50 µM
MDA-MB-435
  GI50: 0.0908 µM
  TGI: 0.258 µM
MOLT-4 leukemia
  GI50: 0.312 µM
  TGI: > 50 µM
NCI-H226 lung
  GI50: 0.372 µM
  TGI: 4.75 µM
NCI-H23 lung
  GI50: 0.206 µM
NCI-H460 lung
  GI50: 0.19 µM
  TGI: 5.04 µM
NCI-H522 lung
  GI50: 0.126 µM
NCI/ADR-RES ovarian
  GI50: 0.127 µM
  TGI: 0.381 µM
OVCAR-3 ovarian
  GI50: 0.16 µM
  TGI: 0.842 µM
OVCAR-4 ovarian
  GI50: 0.732 µM
  TGI: > 50 µM
OVCAR-5 ovarian
  GI50: 0.35 µM
  TGI: > 50 µM
OVCAR-8 ovarian
  GI50: 0.244 µM
  TGI: > 50 µM
PC-3 prostate
  GI50: 0.209 µM
  TGI: > 50 µM
RPMI-8226 leukemia
  GI50: 0.187 µM
  TGI: 1.49 µM
RXF 393 renal
  GI50: 0.102 µM
  TGI: 0.324 µM
SF-268 CNS
  GI50: 0.68 µM
  TGI: > 50 µM
SF-295 CNS
  GI50: 0.295 µM
  TGI: > 50 µM
SF-539 CNS
  GI50: 0.122 µM
  TGI: 0.324 µM
SK-MEL-2 melanoma
  GI50: 0.389 µM
  TGI: > 50 µM
SK-MEL-28 melanoma
  GI50: 6.1 µM
  TGI: > 50 µM
SK-MEL-5 melanoma
  GI50: 0.192 µM
  TGI: 0.881 µM
SK-OV-3 ovarian
  GI50: 0.3 µM
  TGI: > 50 µM
SN12C renal
  GI50: 0.362 µM
  TGI: > 50 µM
SNB-19 CNS
  GI50: 0.262 µM
  TGI: > 50 µM
SNB-75 CNS
  GI50: 0.147 µM
SR leukemia
  GI50: 0.196 µM
  TGI: > 50 µM
SW-620 colon
  GI50: 0.219 µM
  TGI: > 50 µM
T-47D breast
  GI50: 0.291 µM
  TGI: > 50 µM
TK-10 renal
  GI50: 0.965 µM
  TGI: > 50 µM
U251 CNS
  GI50: 0.201 µM
  TGI: 4.36 µM
UACC-257 melanoma
  GI50: 6 µM
  TGI: > 50 µM
UACC-62 melanoma
  GI50: 0.267 µM
  TGI: > 50 µM
UO-31 renal
  GI50: 0.406 µM
  TGI: > 25.6 µM

From PubChem BioAssay (NCI)
